± gives the standard deviation.
What was measured:
[1] = chemical recovery by SPE of plasma after PDMS sampling; higher = better extraction; settings: pooled human plasma, extraction method: HLB SPE of plasma after PES
[2] = chemical recovery into PDMS from spiked human plasma; higher = better extraction; settings: pooled human plasma, extraction method: PES with PDMS
[3] = chemical recovery from spiked human plasma; higher = better extraction; settings: pooled human plasma
[4] = extraction method: PES+SPE (3 d PDMS equilibration then HLB SPE)
[5] = extraction method: SPE only (HLB 96-well)
[6] = extraction method: SPE only (HLB 96-well), PES comparison experiment
[7] = extraction method: solvent precipitation (ACN + hexane)
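Wherever chemical recovery by SPE of plasma after PDMS sampling is given: over 400 spiked chemicals quantified by LC-HRMS or GC-HRMS via internal standard calibration, recovery relative to spike mix added to unspiked plasma extract to correct matrix effects.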

Structure (SMILES): O=c1ccc2ccccc2[nH]1 [2-Hydroxyquinoline]
- chemical recovery by SPE of plasma ([1]; equilibration time (d): 1): 36.8 ± 5.3%
- chemical recovery by SPE of plasma ([1]; equilibration time (d): 3): 30.9 ± 3.2%
- chemical recovery by SPE of plasma ([1]; equilibration time (d): 6): 24 ± 2.1%
- chemical recovery into PDMS ([2]; equilibration time (d): 1): 10.9 ± 0.65%
- chemical recovery into PDMS ([2]; equilibration time (d): 3): 15.6 ± 2%
- chemical recovery into PDMS ([2]; equilibration time (d): 6): 17.1 ± 2.4%
- chemical recovery [3, 4]: 57.1 ± 5.5%
- chemical recovery [3, 5]: 43 ± 3.2%
- chemical recovery [3, 6]: 52.9 ± 8.4%
- chemical recovery [3, 7]: 78.2 ± 3.6%

Structure (SMILES): Cc1nc2ccccc2s1 [2-Methylbenzothiazole]
- chemical recovery by SPE of plasma ([1]; equilibration time (d): 1): 0.0827 ± 0.14%
- chemical recovery by SPE of plasma ([1]; equilibration time (d): 3): 0.253 ± 0.11%
- chemical recovery by SPE of plasma ([1]; equilibration time (d): 6): 0.0669 ± 0.12%
- chemical recovery into PDMS ([2]; equilibration time (d): 1): 8.73 ± 6%
- chemical recovery into PDMS ([2]; equilibration time (d): 6): 5.9 ± 0.22%
- chemical recovery [3, 5]: 0.149 ± 0.18%
- chemical recovery [3, 6]: 0.912 ± 0.53%

Structure (SMILES): CCCCCCCCn1sccc1=O [2-Octyl-4-isothiazolin-3-one]
- chemical recovery by SPE of plasma ([1]; equilibration time (d): 1): 1.24 ± 0.64%
- chemical recovery by SPE of plasma ([1]; equilibration time (d): 3): 1.03 ± 0.27%
- chemical recovery by SPE of plasma ([1]; equilibration time (d): 6): 0.459 ± 0.03%
- chemical recovery into PDMS ([2]; equilibration time (d): 1): 33.3 ± 1.9%
- chemical recovery into PDMS ([2]; equilibration time (d): 3): 35.5 ± 1.5%
- chemical recovery into PDMS ([2]; equilibration time (d): 6): 36.3 ± 1.2%
- chemical recovery [3, 5]: 29.4 ± 2.2%
- chemical recovery [3, 6]: 21.6 ± 2.9%
- chemical recovery [3, 7]: 40.8 ± 4.6%

Structure (SMILES): Nc1ccc(-c2ccc(N)c(Cl)c2)cc1Cl [3,3'-Dichlorobenzidine]
- chemical recovery by SPE of plasma ([1]; equilibration time (d): 1): 16.1 ± 5.5%
- chemical recovery by SPE of plasma ([1]; equilibration time (d): 3): 17.3 ± 2%
- chemical recovery by SPE of plasma ([1]; equilibration time (d): 6): 14.6 ± 2.8%
- chemical recovery into PDMS ([2]; equilibration time (d): 1): 3.87 ± 0.23%
- chemical recovery into PDMS ([2]; equilibration time (d): 3): 3.04 ± 0.4%
- chemical recovery into PDMS ([2]; equilibration time (d): 6): 3.28 ± 0.46%
- chemical recovery [3, 4]: 39.1 ± 7.4%
- chemical recovery [3, 5]: 54.8 ± 17%
- chemical recovery [3, 6]: 24.4 ± 3.6%
- chemical recovery [3, 7]: 72 ± 6.2%

Structure (SMILES): NC(=O)Nc1ccc(Cl)c(Cl)c1 [3,4-Dichlorophenylurea]
- chemical recovery by SPE of plasma ([1]; equilibration time (d): 1): 40.1 ± 4.3%
- chemical recovery by SPE of plasma ([1]; equilibration time (d): 3): 40.9 ± 3%
- chemical recovery by SPE of plasma ([1]; equilibration time (d): 6): 36.5 ± 1.1%
- chemical recovery into PDMS ([2]; equilibration time (d): 1): 0.856 ± 1.5%
- chemical recovery into PDMS ([2]; equilibration time (d): 3): 4.96 ± 0.6%
- chemical recovery into PDMS ([2]; equilibration time (d): 6): 5.93 ± 0.81%
- chemical recovery [3, 4]: 56.4 ± 2.7%
- chemical recovery [3, 5]: 43.9 ± 3.2%
- chemical recovery [3, 6]: 49.3 ± 6.2%
- chemical recovery [3, 7]: 71.8 ± 3.8%

Structure (SMILES): Cc1cc(Cc2ccc(N)c(C)c2)ccc1N [4,4'-Methylene-bis(2-methyl aniline)]
- chemical recovery by SPE of plasma ([1]; equilibration time (d): 1): 4.29 ± 0.41%
- chemical recovery by SPE of plasma ([1]; equilibration time (d): 3): 4.74 ± 0.39%
- chemical recovery by SPE of plasma ([1]; equilibration time (d): 6): 2.61 ± 0.21%
- chemical recovery into PDMS ([2]; equilibration time (d): 1): 0.0153 ± 0.026%
- chemical recovery into PDMS ([2]; equilibration time (d): 3): 0.00421 ± 0.0073%
- chemical recovery into PDMS ([2]; equilibration time (d): 6): 0.0106 ± 0.018%
- chemical recovery [3, 4]: 1.31 ± 0.94%
- chemical recovery [3, 5]: 30.3 ± 9.8%
- chemical recovery [3, 6]: 24.5 ± 4%
- chemical recovery [3, 7]: 65 ± 9.2%

Structure (SMILES): ClC(Cl)=C(c1ccc(Cl)cc1)c1ccc(Cl)cc1 [4,4-DDE]
- chemical recovery by SPE of plasma ([1]; equilibration time (d): 1): 0.964 ± 1%
- chemical recovery by SPE of plasma ([1]; equilibration time (d): 3): 0.268 ± 0.47%
- chemical recovery into PDMS ([2]; equilibration time (d): 1): 83.8 ± 12%
- chemical recovery into PDMS ([2]; equilibration time (d): 3): 87.9 ± 3.9%
- chemical recovery into PDMS ([2]; equilibration time (d): 6): 93 ± 13%
- chemical recovery [3, 6]: 13 ± 3%

Structure (SMILES): NC(=O)c1ccc(N)cc1 [4-Aminobenzamide]
- chemical recovery by SPE of plasma ([1]; equilibration time (d): 3): 5.92 ± 1.7%
- chemical recovery by SPE of plasma ([1]; equilibration time (d): 6): 10 ± 3.9%
- chemical recovery into PDMS ([2]; equilibration time (d): 1): 0.339 ± 0.59%
- chemical recovery into PDMS ([2]; equilibration time (d): 3): 0.844 ± 0.17%
- chemical recovery into PDMS ([2]; equilibration time (d): 6): 0.572 ± 0.1%
- chemical recovery [3, 4]: 3.92 ± 0.79%
- chemical recovery [3, 5]: 3.28 ± 2.1%
- chemical recovery [3, 7]: 98.6 ± 21%

Structure (SMILES): C[C@]12CCC(=O)C=C1CC[C@@H]1[C@@H]2CC[C@]2(C)C(=O)CC[C@@H]12 [4-Androstene-3,17-dione]
- chemical recovery by SPE of plasma ([1]; equilibration time (d): 1): 1.37 ± 2.1%
- chemical recovery by SPE of plasma ([1]; equilibration time (d): 3): 4.32 ± 1.8%
- chemical recovery by SPE of plasma ([1]; equilibration time (d): 6): 1.36 ± 1.8%
- chemical recovery into PDMS ([2]; equilibration time (d): 1): 39.8 ± 3%
- chemical recovery into PDMS ([2]; equilibration time (d): 3): 43.4 ± 1.7%
- chemical recovery into PDMS ([2]; equilibration time (d): 6): 42.6 ± 3.7%
- chemical recovery [3, 6]: 49.8 ± 8.7%

Structure (SMILES): Nc1ccc(Cl)cc1 [4-Chloroaniline]
- chemical recovery by SPE of plasma ([1]; equilibration time (d): 1): 11.4 ± 2.3%
- chemical recovery by SPE of plasma ([1]; equilibration time (d): 3): 14.6 ± 1.5%
- chemical recovery by SPE of plasma ([1]; equilibration time (d): 6): 9.71 ± 1.7%
- chemical recovery into PDMS ([2]; equilibration time (d): 1): 6.69 ± 4.3%
- chemical recovery into PDMS ([2]; equilibration time (d): 3): 5.92 ± 5.1%
- chemical recovery into PDMS ([2]; equilibration time (d): 6): 5.47 ± 3.5%
- chemical recovery [3, 5]: 16.4 ± 6.2%

Structure (SMILES): O=C(O)CCC(=O)c1ccc(F)cc1 [4-Fluorobenzoylpropionic acid]
- chemical recovery by SPE of plasma ([1]; equilibration time (d): 1): 60.4 ± 6.4%
- chemical recovery by SPE of plasma ([1]; equilibration time (d): 3): 60.3 ± 4.6%
- chemical recovery by SPE of plasma ([1]; equilibration time (d): 6): 56.6 ± 5.1%
- chemical recovery into PDMS ([2]; equilibration time (d): 3): 0.0416 ± 0.072%
- chemical recovery into PDMS ([2]; equilibration time (d): 6): 0.0611 ± 0.11%
- chemical recovery [3, 4]: 47.1 ± 4.1%
- chemical recovery [3, 5]: 42.5 ± 2%
- chemical recovery [3, 6]: 59.7 ± 7.3%
- chemical recovery [3, 7]: 64 ± 7.2%
